{"source": "PubChem BioAssay AID504655", "about": "(Southern Research Specialized Biocontainment Screening …, 2011)", "note": "Activity calls are given as the source filed them. The rule behind the calls is not given here."}
{"test_system": "HEp-2 cells, RSV CPE inhibition, cell viability", "assay": "protection of HEp-2 cells from RSV – synthesized compounds, set 7, dose response (AID 504655)"}
{"smiles": "CNC(=O)c1ccc(Cn2c(=O)c3ccccc3n(Cc3ccc(C)cc3)c2=O)cc1", "IC50": "2.26 µM"}
{"smiles": "O=C(NCc1ccc(Cl)cc1)C1CCN(S(=O)(=O)c2cccc3nonc23)CC1", "IC50": "> 50 µM (inactive)"}
{"smiles": "Cc1ccc(Cn2c(=O)n(Cc3ccc(C(=O)N4CCOCC4)cc3)c(=O)c3ccccc32)cc1", "IC50": "> 50 µM (inactive)"}
{"smiles": "Cc1ccc(CNC(=O)C2CCN(S(=O)(=O)c3cccc4nonc34)CC2)c(C)c1", "IC50": "> 50 µM (inactive)"}
{"smiles": "COCCCNC(=O)c1ccc(Cn2c(=O)c3ccc(C(F)(F)F)cc3n(Cc3ccc(C)cc3)c2=O)cc1", "IC50": "> 50 µM (inactive)"}
{"smiles": "Cc1ccc(Cn2c(=O)n(Cc3ccc(C(=O)N4CCCCC4)cc3)c(=O)c3ccccc32)cc1", "IC50": "> 50 µM (inactive)"}
{"smiles": "O=C(NCc1cccc(Cl)c1)C1CCN(S(=O)(=O)c2cccc3nonc23)CC1", "IC50": "> 50 µM (inactive)"}
{"smiles": "Cc1ccc(NC(=O)[C@@H]2CCCN2S(=O)(=O)c2cccc3nonc23)c(C)c1", "IC50": "> 50 µM (inactive)"}
{"smiles": "COc1ccccc1CNC(=O)[C@@H]1CCCN1S(=O)(=O)c1cccc2nonc12", "IC50": "> 50 µM (inactive)"}
{"smiles": "Cc1ccc(Cl)cc1NC(=O)[C@@H]1CCCN1S(=O)(=O)c1cccc2cccnc12", "IC50": "6.11 µM"}
{"smiles": "COCCCNC(=O)c1ccc(Cn2c(=O)c3ccc(C)cc3n(Cc3ccc(C)cc3)c2=O)cc1", "IC50": "> 50 µM (inactive)"}
{"smiles": "Cc1ccc(Cn2c(=O)n(Cc3ccc(C(=O)NCc4ccccc4)cc3)c(=O)c3ccccc32)cc1", "IC50": "> 50 µM (inactive)"}
{"smiles": "COc1ccccc1NC(=O)[C@@H]1CCCN1S(=O)(=O)c1cccc2nonc12", "IC50": "> 50 µM (inactive)"}
{"smiles": "Cc1ccc(Cn2c(=O)n(Cc3ccc(C(=O)N4CCCC4)cc3)c(=O)c3ccccc32)cc1", "IC50": "> 50 µM (inactive)"}
{"smiles": "Cc1ccc(Cn2c(=O)n(Cc3ccc(C(=O)NC4CCCCC4)cc3)c(=O)c3ccccc32)cc1", "IC50": "> 50 µM (inactive)"}
{"smiles": "COc1ccc(C)c(NC(=O)[C@@H]2CCCN2S(=O)(=O)c2cccc3cccnc23)c1", "IC50": "9.33 µM"}
{"smiles": "Cc1ccc(Cn2c(=O)n(Cc3ccc(C(=O)N(C)C)cc3)c(=O)c3ccccc32)cc1", "IC50": "> 50 µM (inactive)"}
{"smiles": "COCCNC(=O)c1ccc(Cn2c(=O)c3ccccc3n(Cc3ccc(C)cc3)c2=O)cc1", "IC50": "3.05 µM"}
{"smiles": "Cc1ccc(Cn2c(=O)n(Cc3ccc(C(=O)Nc4ccccc4)cc3)c(=O)c3ccccc32)cc1", "IC50": "> 50 µM (inactive)"}
{"smiles": "COCCCNC(=O)c1ccc(Cn2c(=O)c3ccc(OC)cc3n(Cc3ccc(C)cc3)c2=O)cc1", "IC50": "> 50 µM (inactive)"}
